Patent publication US20150293106A1, “DIAROMATIC AMINO ACID SUBSTRATE FOR CATHEPSIN DETECTION” (INDUSTRY-ACADEMIC COOPERATION FOUNDATION, YONSEI UNIVERSITY, priority 2012, published 2015)
Read-outs that look alike come from different tables or passages of the source. Marks after values point to notes of the source that are not given here. Where no end group is shown, it is not given here. [ ]: non-standard residue; d: D form. The star is where a group is joined. Dnp = O=[N+]([O-])c1ccc(*)c([N+](=O)[O-])c1; 2Abz = Nc1ccccc1C(=O)O

Experiments:
cathepsin L = target: T1, cathepsin L (Homo sapiens, UniProt P07711); assay: Selective hydrolysis by cathepsins, fluorescence (FIG. 20); type: biochemical; conditions: inventors' earlier research on DBDY-(INH)2; conditions not given
T1 construct: cathepsins B and L derived from a human liver; purchased Sigma-Aldrich Chemical Co; host or cells: human liver
Description: (§1) The reaction was performed under alkaline conditions.
(§2) The results of experiments were illustrated in FIG. 20. Since the hydrolysis by cathepsin B was faster than the hydrolyses by papain and chymopapain, the reaction was performed with a substrate (concentration: 1.0 μM) and a protease (concentration: […]) of which the concentrations were set lower than those in Experimental Example 2 (substrate (concentration: 2.5 μM) and protease (concentration: 0.1 μM) reacted for two hours) for 30 minutes in FIG. 20. C1, C2, CB, CL, and CS represented on an X-axis respectively denote papain, chymopapain, cathepsin B, cathepsin L, and cathepsin S. Each experiment was repeated at least three times.

cathepsin B [1] = target: T2, cathepsin B (Homo sapiens, UniProt P07858); assay: as above; type: biochemical; parameters: cathepsins B and L derived from a human liver; purchased Sigma-Aldrich Chemical Co; host or cells: human liver; conditions: inventors' earlier research on DBDY-(INH)2; conditions not given
Description: as §1, §2

dispase = target: T3, dispase (Paenibacillus polymyxa, UniProt P29148); assay: Protease-catalyzed hydrolysis, restored DBDY fluorescence (selectivity, FIGS. 11-19); type: biochemical, bacillus polymyxa; conditions: substrate 2.5 μM, protease 0.1 μM, two hours; hydrolysate amino acid-INH
T3 construct: dispase derived from bacillus polymyxa; purchased Sigma-Aldrich Chemical Co; host or cells: Bacillus polymyxa
Description: as §1
The hydrolysis reaction was performed for two hours. […] Each experiment was repeated at least three times.

thermolysin [2] = target: T4, thermolysin (Bacillus thermoproteolyticus, UniProt P00800); conditions: substrate 2.5 μM, protease 0.1 μM, two hours; hydrolysate amino acid-INH
Description: (§3) For the meaningful comparison of proteases, a hydrolysis reaction was performed under the optimum conditions as reported in other documents (regarding chymotrypsin, subtilisin, thermolysin and pepsin, refer to R. Beynon, J. S. Bond, Proteolytic Enzymes (Second Edition), Oxford University Press, 2001, pp. 295-316; regarding trypsin, proteinase K, carboxy peptidase A, collagenase, dispase, aspergillopepsin, papain, chymopapain, bromelain, cathepsin B, cathepsin L, and cathepsin S, refer to the catalog of Sigma-Aldrich Corporation).
(§4) Before the reaction, the mixtures of the reaction buffer solutions and proteases were previously incubated for 30 minutes in a water bath in which the temperature was adjusted to an analysis temperature. The hydrolysis reaction was initiated by adding a substrate dissolved in DMSO. The volume of the added substrate solution was controlled such that the final concentration of DMSO was lower than 1.5% (v/v).
The λex and λem were respectively adjusted to 284 nm and 410 nm with respect to papain, chymopapain, bromelain, cathepsins, aspergillopepsin and pepsin, and the λex and λem were respectively adjusted to 320 nm and 410 nm with respect to chymotrypsin, trypsin, subtilisin, proteinase K, thermolysin, carboxypeptidase A, collagenase and dispase. The reaction was performed under alkaline conditions.
The fluorescence measured at the end of the reaction was expressed as a final fluorescence.
The initial concentrations of each substrate and protease were respectively set to 2.5 μM and 0.1 μM. The hydrolysis reaction was performed for two hours. Reference numbers on an X-axis denoted the following: C1=papain; C2=chymopapain; C3=bromelain; S1=chymotrypsin; S2=trypsin; S3=subtilisin; S4=proteinase K; M1=thermolysin; M2=carboxypeptidase A; M3=dispase; M4=collagenase; A1=pepsin; and A2=aspergillopepsin. Each experiment was repeated at least three times.

pepsin = target: T5, pepsin (Sus scrofa, UniProt P00791); assay: Degree of hydrolysis by protease (Table 3); type: biochemical, pig; conditions: after 2 hours; protease 10 μM; substrate 0.2 mM (G1-G3, L1-L3) or 0.1 mM (G4, L4); n.d. = no hydrolysis was detected; hydrolysate INH
T5 construct: pepsin derived from pig gastric mucosa; purchased Sigma-Aldrich Chemical Co; host or cells: pig gastric mucosa
Description: (§5) A hydrolysate was measured using a HPLC system.

thermolysin [3] = target: T4, thermolysin; conditions: after 2 hours; protease 10 μM; substrate 0.2 mM (G1-G3, L1-L3) or 0.1 mM (G4, L4); n.d. = no hydrolysis was detected; hydrolysate INH
Description: as §3, §4
A hydrolysate was measured using a HPLC system. In order to prepare a sample, a hydrolysis reaction was terminated by adding 2% (v/v) 1M HCl with respect to a serine protease, cysteine protease and metalloprotease, and adding 1M NaOH with respect to an aspartic protease. The separation was performed using the mixture of 10 mM-ammonium bicarbonate and acetonitrile as an eluent in C-18 column (particle size: 5 μm, 250 mm×4.6 mm, pore size: 80 Å, Phenomenex, USA). The elution was performed for 15 minutes, while the linear gradient of acetonitrile was increased from 0 to 60%. The flow rate and separation temperature of the eluent were maintained at 1 mL min^−1 and 35° C. The hydrolysate was detected at a wavelength of 254 nm.
Based on the report that a hydrophobic amino acid such as phenylalanine was preferred at a P2 position in most of the papain-like cysteine proteases, Boc-aromatic amino acid-Gly-INH and Boc-aromatic amino acid-Lys-INH were prepared in particular, and experimented as a substrate with respect to chymotrypsin, trypsin, papain, pepsin and thermolysis.

chymotrypsin = target: T6, chymotrypsin (Bos taurus, UniProt P00766); assay: Degree of hydrolysis by protease (Table 3); type: biochemical, bovine; conditions: after 2 hours, protease 10 μM, substrate 0.2 mM (G1-G3, L1-L3) or 0.1 mM (G4, L4), n.d. = no hydrolysis was detected, hydrolysate Gly-INH (G), Lys-INH (L1-L3)
T6 construct: chymotrypsin and trypsin derived from fetal bovine pancreas; purchased Sigma-Aldrich Chemical Co; host or cells: bovine pancreas
Description: as §5

papain = target: T7, papain (Carica papaya, UniProt P00784); assay: Degree of hydrolysis by protease (Table 3); type: biochemical, papaya latex; conditions: after 2 hours; protease 10 μM; substrate 0.2 mM (G1-G3, L1-L3) or 0.1 mM (G4, L4); hydrolysate INH
T7 construct: papain and chymopapain derived from papaya latex; purchased Sigma-Aldrich Chemical Co; host or cells: papaya latex
T7 sequence (P00784 134-345): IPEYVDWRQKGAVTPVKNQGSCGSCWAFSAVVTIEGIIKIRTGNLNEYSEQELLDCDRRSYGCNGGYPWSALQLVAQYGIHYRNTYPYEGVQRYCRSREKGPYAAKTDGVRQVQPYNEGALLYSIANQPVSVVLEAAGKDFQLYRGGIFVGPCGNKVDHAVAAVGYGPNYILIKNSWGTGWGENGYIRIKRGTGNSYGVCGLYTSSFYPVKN
Description: as §5

trypsin = target: T8, trypsin (Bos taurus, UniProt P00760); assay: Degree of hydrolysis by protease (Table 3); type: biochemical, bovine; conditions: after 2 hours; protease 10 μM; substrate 0.2 mM (G1-G3, L1-L3) or 0.1 mM (G4, L4); n.d. = no hydrolysis was detected; hydrolysate INH
T8 construct: chymotrypsin and trypsin derived from fetal bovine pancreas; purchased Sigma-Aldrich Chemical Co; host or cells: bovine pancreas
T8 sequence (P00760 24-246): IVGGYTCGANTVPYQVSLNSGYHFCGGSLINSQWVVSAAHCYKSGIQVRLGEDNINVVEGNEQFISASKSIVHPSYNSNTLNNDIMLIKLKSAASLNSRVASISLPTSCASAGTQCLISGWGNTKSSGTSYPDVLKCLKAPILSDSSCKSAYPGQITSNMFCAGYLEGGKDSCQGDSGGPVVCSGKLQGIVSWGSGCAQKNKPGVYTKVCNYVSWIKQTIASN
Description: as §5

cathepsin B [4] = target: T2, cathepsin B; conditions: reported for other substances, cited from earlier work

T4 sequence (P00800 233-548): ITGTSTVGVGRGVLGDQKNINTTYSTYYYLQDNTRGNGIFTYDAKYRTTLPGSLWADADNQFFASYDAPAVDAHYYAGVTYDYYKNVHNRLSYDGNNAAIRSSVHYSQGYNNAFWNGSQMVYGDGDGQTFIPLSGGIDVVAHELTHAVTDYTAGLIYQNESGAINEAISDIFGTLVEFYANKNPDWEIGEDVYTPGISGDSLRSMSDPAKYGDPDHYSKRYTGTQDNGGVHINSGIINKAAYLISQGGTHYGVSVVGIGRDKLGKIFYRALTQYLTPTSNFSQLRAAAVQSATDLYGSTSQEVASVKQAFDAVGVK
T3 sequence (P29148 287-590): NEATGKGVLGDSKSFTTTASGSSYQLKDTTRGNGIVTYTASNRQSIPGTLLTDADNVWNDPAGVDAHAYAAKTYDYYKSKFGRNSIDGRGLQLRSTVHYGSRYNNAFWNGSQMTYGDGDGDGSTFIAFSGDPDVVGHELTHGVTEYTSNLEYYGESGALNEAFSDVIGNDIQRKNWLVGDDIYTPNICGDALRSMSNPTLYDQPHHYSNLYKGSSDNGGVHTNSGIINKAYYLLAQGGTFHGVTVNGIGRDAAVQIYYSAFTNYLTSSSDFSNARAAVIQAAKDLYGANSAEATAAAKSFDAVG
T5 sequence (P00791 60-385): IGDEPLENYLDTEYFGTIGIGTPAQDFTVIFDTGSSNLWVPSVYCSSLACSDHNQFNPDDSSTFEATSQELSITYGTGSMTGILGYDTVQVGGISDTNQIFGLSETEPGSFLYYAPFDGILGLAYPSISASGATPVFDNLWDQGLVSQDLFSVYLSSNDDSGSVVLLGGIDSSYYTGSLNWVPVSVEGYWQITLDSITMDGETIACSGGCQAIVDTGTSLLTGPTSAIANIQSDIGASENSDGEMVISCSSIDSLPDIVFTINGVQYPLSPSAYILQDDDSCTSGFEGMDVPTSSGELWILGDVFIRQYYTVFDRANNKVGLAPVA
T1 sequence (P07711 114-333): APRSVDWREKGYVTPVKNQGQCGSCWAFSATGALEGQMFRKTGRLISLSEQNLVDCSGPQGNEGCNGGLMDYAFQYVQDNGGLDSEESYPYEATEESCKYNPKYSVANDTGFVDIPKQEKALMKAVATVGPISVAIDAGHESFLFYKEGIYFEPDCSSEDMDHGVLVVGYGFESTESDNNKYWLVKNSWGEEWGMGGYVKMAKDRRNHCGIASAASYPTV

| Molecule | sensitivity for dispase (hydrolysis, increased fluorescence) (dispase) | sensitivity for thermolysin (hydrolysis, increased fluorescence) (thermolysin [2]) | degree of hydrolysis by Chymotrypsin (chymotrypsin) | degree of hydrolysis by Papain (papain) [%] | also measured |
| --- | --- | --- | --- | --- | --- |
| CC(C)(C)OC(=O)NC(Cc1ccc(O)c(-c2cc(CC(NC(=O)OC(C)(C)C)C(=O)NNC(=O)c3ccncc3)ccc2O)c1)C(=O)NNC(=O)c1ccncc1 (stereo not shown) [DBDY-(INH)2, reference compound] |  |  |  |  | hydrolysis by cathepsin L (cathepsin L): not hydrolyzed; hydrolysis by cathepsin B (cathepsin B [1]): not hydrolyzed |
| CC[C@H](C)[C@H](NC(=O)C(Cc1ccc(O)c(-c2cc(CC(NC(=O)OC(C)(C)C)C(=O)N[C@H](C(=O)NNC(=O)c3ccncc3)[C@@H](C)CC)ccc2O)c1)NC(=O)OC(C)(C)C)C(=O)NNC(=O)c1ccncc1 (stereo partly shown) [DBDY-(Ile-INH)2] | high sensitivity | high sensitivity |  |  |  |
| CC(C)C[C@H](NC(=O)C(Cc1ccc(O)c(-c2cc(CC(NC(=O)OC(C)(C)C)C(=O)N[C@@H](CC(C)C)C(=O)NNC(=O)c3ccncc3)ccc2O)c1)NC(=O)OC(C)(C)C)C(=O)NNC(=O)c1ccncc1 (stereo partly shown) [DBDY-(Leu-INH)2] | high sensitivity | high sensitivity |  |  |  |
| CSCC[C@H](NC(=O)C(Cc1ccc(O)c(-c2cc(CC(NC(=O)OC(C)(C)C)C(=O)N[C@@H](CCSC)C(=O)NNC(=O)c3ccncc3)ccc2O)c1)NC(=O)OC(C)(C)C)C(=O)NNC(=O)c1ccncc1 (stereo partly shown) [DBDY-(Met-INH)2] | high sensitivity | high sensitivity |  |  |  |
| CC(C)(C)OC(=O)NC(Cc1ccc(O)c(-c2cc(CC(NC(=O)OC(C)(C)C)C(=O)N[C@@H](Cc3ccccc3)C(=O)NNC(=O)c3ccncc3)ccc2O)c1)C(=O)N[C@@H](Cc1ccccc1)C(=O)NNC(=O)c1ccncc1 (stereo partly shown) [DBDY-(Phe-INH)2] | high sensitivity | high sensitivity |  |  |  |
| CC(C)[C@H](NC(=O)C(Cc1ccc(O)c(-c2cc(CC(NC(=O)OC(C)(C)C)C(=O)N[C@H](C(=O)NNC(=O)c3ccncc3)C(C)C)ccc2O)c1)NC(=O)OC(C)(C)C)C(=O)NNC(=O)c1ccncc1 (stereo partly shown) [DBDY-(Val-INH)2] | high sensitivity | high sensitivity |  |  |  |
| CC(C)(C)OC(=O)NC(Cc1ccc(O)cc1)C(=O)NCC(=O)NNC(=O)c1ccncc1 (stereo not drawn) [Substrate G1, Boc-Tyr- Gly-INH] |  |  | 38.7 ± 2.9 ^d % | 62.8 ± 2.5 | degree of hydrolysis by Pepsin (pepsin): 2.34 ± 0.45%; degree of hydrolysis by Thermolysin (thermolysin [3]): 0.74 ± 0.02% |
| CC(C)(C)OC(=O)NC(Cc1ccccc1)C(=O)NCC(=O)NNC(=O)c1ccncc1 (stereo not drawn) [Substrate G2, Boc-Phe-Gly-INH] |  |  | 28.6 ± 3.4 ^d % | 51.0 ± 3.5 | degree of hydrolysis by Pepsin (pepsin): 1.61 ± 0.05% |
| CC(C)(C)OC(=O)NC(Cc1c[nH]c2ccccc12)C(=O)NCC(=O)NNC(=O)c1ccncc1 (stereo not drawn) [Substrate G3, Boc-Trp-Gly-INH] |  |  | 17.3 ± 5.5 ^d % | 58.8 ± 6.2 | degree of hydrolysis by Pepsin (pepsin): 3.21 ± 0.45%; degree of hydrolysis by Thermolysin (thermolysin [3]): 0.74 ± 0.05% |
| CC(C)(C)OC(=O)NC(Cc1ccc(O)cc1)C(=O)NC(CCCCN)C(=O)NNC(=O)c1ccncc1 (stereo not drawn) [Substrate L1, Boc-Tyr-Lys-INH] |  |  | 37.6 ± 5.2 ^e % | 77.4 ± 5.8 | degree of hydrolysis by Pepsin (pepsin): 0.74 ± 0.04%; degree of hydrolysis by Trypsin (trypsin): 69.6 ± 4.1% |
| CC(C)(C)OC(=O)NC(Cc1ccccc1)C(=O)NC(CCCCN)C(=O)NNC(=O)c1ccncc1 (stereo not drawn) [Substrate L2, Boc-Phe-Lys-INH] |  |  | 53.2 ± 4.8 ^e % | 89.1 ± 2.5 | degree of hydrolysis by Trypsin (trypsin): 81.2 ± 4.9% |
| CC(C)(C)OC(=O)NC(Cc1c[nH]c2ccccc12)C(=O)NC(CCCCN)C(=O)NNC(=O)c1ccncc1 (stereo not drawn) [Substrate L3, Boc-Trp-Lys-INH] |  |  | 58.3 ± 1.2 ^e % | 93.1 ± 8.9 | degree of hydrolysis by Thermolysin (thermolysin [3]): 4.04 ± 0.08%; degree of hydrolysis by Trypsin (trypsin): 85.1 ± 3.7% |
| Abz-Gly-Ile-Val-Arg-Ala-Lys(Dnp)-OH ([2Abz]GIVRAK(Dnp)-OH) |  |  |  |  | Km (cathepsin B [4]; unit inferred): 5.9 µM |
| Abz-Phe-Arg-Dap(Dnp)-Trp-OH |  |  |  |  | Km (cathepsin B [4]): 3 µM |
| Abz-Phe-Phe-Dap(Dnp)-Trp-OH |  |  |  |  | Km (cathepsin B [4]): 2.1 µM |
